Data: ChEMBL document CHEMBL1124634, “Synthesis and antirhinovirus activity of 6-(dimethylamino)-2-(trifluoromethyl)-9-(substituted benzyl)-9H-purines” (J Med Chem, 1989)

Assays:
[1] = system: Human rhinovirus sp.; experiment: Antiviral activity against rhinoviral 29 serotype in a plaque inhibition assay using monolayers of M-HeLa cells; type: functional, organism-based
[2] = system: Human rhinovirus sp.; experiment: Antiviral activity against rhinoviral 2 serotype in a plaque inhibition assay using monolayers of M-HeLa cells; type: functional, organism-based
[3] = system: Human rhinovirus sp.; experiment: Antiviral activity against rhinoviral 30 serotype in a plaque inhibition assay using monolayers of M-HeLa cells; type: functional, organism-based
[4] = Antiviral activity against rhinoviral 13 serotype in a plaque inhibition assay using monolayers of M-HeLa cells; type: functional, cell-based; conditions: Homo sapiens
[5] = system: Human rhinovirus sp.; experiment: Antiviral activity against rhinoviral 14 serotype in a plaque inhibition assay using monolayers of M-HeLa cells; type: functional, organism-based
[6] = system: Human rhinovirus sp.; experiment: Antiviral activity against rhinoviral 15 serotype in a plaque inhibition assay using monolayers of M-HeLa cells; type: functional, organism-based
[7] = system: Human rhinovirus sp.; experiment: Antiviral activity against rhinoviral 12 serotype in a plaque inhibition assay using monolayers of M-HeLa cells; type: functional, organism-based
[8] = system: Human rhinovirus sp.; experiment: Antiviral activity against rhinoviral-18 serotype in a plaque inhibition assay using monolayers of M-HeLa cells; type: functional, organism-based
[9] = system: Human rhinovirus sp.; experiment: Antiviral activity against rhinoviral-19 serotype in a plaque inhibition assay using monolayers of M-HeLa cells; type: functional, organism-based
[10] = system: Human rhinovirus sp.; experiment: Antiviral activity against rhinoviral-1A serotype in a plaque inhibition assay using monolayers of M-HeLa cells; type: functional, organism-based
[11] = system: Human rhinovirus sp.; experiment: Antiviral activity against rhinoviral-1B serotype in a plaque inhibition assay using monolayers of M-HeLa cells; type: functional, organism-based
[12] = Percent inhibitory activity at 2.5 uM against rhinoviral 3 serotype in a plaque inhibition assay using monolayers of M-HeLa cells; type: functional, Homo sapiens
[13] = Percent inhibitory activity at 2.5 uM against rhinoviral 4 serotype in a plaque inhibition assay using monolayers of M-HeLa cells; type: functional, Homo sapiens
[14] = Percent inhibitory activity at 2.5 uM against rhinoviral 8 serotype in a plaque inhibition assay using monolayers of M-HeLa cells; type: functional, Homo sapiens
[15] = system: Human rhinovirus sp.; experiment: Percent inhibitory activity at 8 uM against rhinoviral 21 serotype in a plaque inhibition assay using monolayers of M-HeLa cells; type: functional
[16] = system: Human rhinovirus sp.; experiment: Percent inhibitory activity at 8 uM against rhinoviral 5 serotype in a plaque inhibition assay using monolayers of M-HeLa cells; type: functional
[17] = system: Human rhinovirus sp.; experiment: (§1) Antiviral activity against rhinoviral 9 serotype in a plaque inhibition assay using monolayers of M-HeLa cells; type: functional, organism-based
[18] = system: Human rhinovirus sp.; experiment: Antiviral activity against rhinoviral 31 serotype in a plaque inhibition assay using monolayers of M-HeLa cells; type: functional, organism-based
[19] = Percent inhibitory activity at 5 uM against rhinoviral 16 serotype in a plaque inhibition assay using monolayers of M-HeLa cells; type: functional, Homo sapiens
[20] = system: Human rhinovirus sp.; experiment: Antiviral activity against rhinoviral 4 serotype in a plaque inhibition assay using monolayers of M-HeLa cells; type: functional, organism-based
[21] = system: Human rhinovirus sp.; experiment: Antiviral activity against rhinoviral 8 serotype in a plaque inhibition assay using monolayers of M-HeLa cells; type: functional, organism-based
[22] = system: Human rhinovirus sp.; experiment: Antiviral activity against rhinoviral 16 serotype in a plaque inhibition assay using monolayers of M-HeLa cells; type: functional, organism-based
[23] = system: Human rhinovirus sp.; experiment: Percent inhibitory activity at 8 uM against rhinoviral 13 serotype in a plaque inhibition assay using monolayers of M-HeLa cells; type: functional
[24] = Percent inhibitory activity at 8 uM against rhinoviral 18 serotype in a plaque inhibition assay using monolayers of M-HeLa cells; type: functional, Homo sapiens
[25] = system: Human rhinovirus sp.; experiment: Percent inhibitory activity at 8 uM against rhinoviral 29 serotype in a plaque inhibition assay using monolayers of M-HeLa cells; type: functional
[26] = system: Human rhinovirus sp.; experiment: Percent inhibitory activity at 8 uM against rhinoviral 3 serotype in a plaque inhibition assay using monolayers of M-HeLa cells; type: functional
[27] = system: Human rhinovirus sp.; experiment: Antiviral activity against rhinoviral 5 serotype in a plaque inhibition assay using monolayers of M-HeLa cells; type: functional, organism-based
[28] = system: Human rhinovirus sp.; experiment: Percent inhibitory activity at 8 uM against rhinoviral 30 serotype in a plaque inhibition assay using monolayers of M-HeLa cells; type: functional
[29] = system: Human rhinovirus sp.; experiment: Antiviral activity against rhinoviral 3 serotype in a plaque inhibition assay using monolayers of M-HeLa cells; type: functional, organism-based
[30] = as §1; type: functional, cell-based; conditions: Homo sapiens
[31] = system: Human rhinovirus sp.; experiment: Percent inhibitory activity at 8 uM against rhinoviral 14 serotype in a plaque inhibition assay using monolayers of M-HeLa cells; type: functional
[32] = system: Human rhinovirus sp.; experiment: Percent inhibitory activity at 8 uM against rhinoviral 15 serotype in a plaque inhibition assay using monolayers of M-HeLa cells; type: functional
[33] = Percent inhibitory activity at 8 uM against rhinoviral 8 serotype in a plaque inhibition assay using monolayers of M-HeLa cells; type: functional, Homo sapiens
[34] = Percent inhibitory activity at 8 uM against rhinoviral-18 serotype in a plaque inhibition assay using monolayers of M-HeLa cells; type: functional, Homo sapiens
[35] = Percent inhibitory activity at 8 uM against rhinoviral 2 serotype in a plaque inhibition assay using monolayers of M-HeLa cells; type: functional, Homo sapiens
[36] = system: Human rhinovirus sp.; experiment: Antiviral activity against rhinoviral 21 serotype in a plaque inhibition assay using monolayers of M-HeLa cells; type: functional, organism-based
[37] = system: Human rhinovirus sp.; experiment: Percent inhibitory activity at 8 uM against rhinoviral 19s erotype in a plaque inhibition assay using monolayers of M-HeLa cells; type: functional
[38] = system: Human rhinovirus sp.; experiment: Percent inhibitory activity at 8 uM against rhinoviral 31 serotype in a plaque inhibition assay using monolayers of M-HeLa cells; type: functional
[39] = system: Human rhinovirus sp.; experiment: Percent inhibitory activity at 8 uM against rhinoviral 4 serotype in a plaque inhibition assay using monolayers of M-HeLa cells; type: functional
[40] = system: Human rhinovirus sp.; experiment: Antiviral activity against rhinoviral 18 serotype in a plaque inhibition assay using monolayers of M-HeLa cells; type: functional, organism-based
[41] = system: Human rhinovirus sp.; experiment: Antiviral activity against rhinoviral 19 serotype in a plaque inhibition assay using monolayers of M-HeLa cells; type: functional, organism-based
[42] = Percent inhibitory activity at 10 uM against rhinoviral 5 serotype in a plaque inhibition assay using monolayers of M-HeLa cells; type: functional, Homo sapiens
[43] = Percent inhibitory activity at 4 uM against rhinoviral-1A serotype in a plaque inhibition assay using monolayers of M-HeLa cells; type: functional, Homo sapiens
[44] = Percent inhibitory activity at 4 uM against rhinoviral 2 serotype in a plaque inhibition assay using monolayers of M-HeLa cells; type: functional, Homo sapiens

SMILES	IC50 [1] [µM]	IC50 [2] [µM]	IC50 [3] [µM]	IC50 [5] [µM]	IC50 [6] [µM]	IC50 [7] [µM]	IC50 [10] [µM]	IC50 [11] [µM]	IC50 [17] [µM]	IC50 [18] [µM]	IC50 [20] [µM]	IC50 [21] [µM]	IC50 [22] [µM]	IC50 [27] [µM]	Inhibition [15] [%]	Inhibition [16] [%]	Inhibition [23] [%]	Inhibition [26] [%]	Inhibition [28] [%]	Inhibition [38] [%]	also measured
COc1ccc(Cn2cnc3c(N(C)C)nc(C(F)(F)F)nc32)cc1C	–	8	–	7.5	9	4.1	2.6	0.2	1.3	–	5.5	> 8	1.9	> 8	16	–	12	28	20	–	IC50 [9]: 8.6 µM; Inhibition [24]: 35 µM; Inhibition [25]: 27%
CN(C)c1nc(C(F)(F)F)nc2c1ncn2Cc1ccc(Cl)cc1	2.5	6.6	6.5	4.3	3.3	7.4	0.73	0.03	0.9	5.3	6.1	5.7	–	8	–	–	–	–	–	–	IC50 [40]: > 8 µM; IC50 [41]: 6.5 µM; IC50 [29]: 6.9 µM; IC50 [4]: > 8 µM; IC50 [36]: 7.4 µM
Cc1cc(Cn2cnc3c(N(C)C)nc(C(F)(F)F)nc32)ccc1Cl	7	5.2	–	8	6.1	3.3	1.4	0.12	1	9	7.6	> 8	0.84	> 8	–	–	13	44	31	–	IC50 [9]: 7.7 µM; Inhibition [24]: 28 µM; IC50 [36]: 6.3 µM
CN(C)c1nc(C(F)(F)F)nc2c1ncn2Cc1ccc(F)cc1	4	–	9	7.1	8.7	8	1.3	0.05	0.87	–	3.8	8	1.3	–	34	11	42	35	–	47	IC50 [40]: 8.9 µM; Inhibition [37]: 22%; Inhibition [35]: 27%
Cc1ccc(Cn2cnc3c(N(C)C)nc(C(F)(F)F)nc32)cc1C	5	5	8.1	6.6	2	4	1.7	0.17	0.65	13	6	5.1	0.78	> 8	16	–	–	39	–	–	IC50 [40]: 8.2 µM; IC50 [41]: 7.1 µM; IC50 [4]: > 8 µM
Cc1ccccc1Cn1cnc2c(N(C)C)nc(C(F)(F)F)nc21	6.2	–	9	–	–	6.5	8	0.29	1.9	–	–	–	1.9	–	18	40	33	–	–	47	IC50 [29]: 7.5 µM; IC50 [8]: 7.7 µM; Inhibition [31]: 31%; Inhibition [32]: 14%; Inhibition [37]: 19%; Inhibition [39]: 22%; Inhibition [33]: 44%
CN(C)c1nc(C(F)(F)F)nc2c1ncn2Cc1ccc([N+](=O)[O-])cc1	10	8.3	–	8.6	–	8	–	0.07	5.6	–	4.1	8.1	1.5	–	28	–	13	43	28	37	IC50 [40]: 5.9 µM; IC50 [41]: 8.8 µM; Inhibition [42]: 32%; Inhibition [43]: 38 µM; Inhibition [32]: 31%

The remaining molecules from weak to strong by IC50 [7], led by results:

IC50 [1] [µM]	IC50 [2] [µM]	IC50 [3] [µM]	IC50 [5] [µM]	IC50 [6] [µM]	IC50 [7] [µM]	IC50 [10] [µM]	IC50 [11] [µM]	IC50 [17] [µM]	IC50 [18] [µM]	IC50 [20] [µM]	IC50 [21] [µM]	IC50 [22] [µM]	IC50 [27] [µM]	SMILES	Inhibition [15] [%]	Inhibition [16] [%]	Inhibition [23] [%]	Inhibition [26] [%]	Inhibition [28] [%]	Inhibition [38] [%]	also measured
–	6.9	11	–	–	11	0.58	0.12	0.93	–	–	8.5	0.85	> 8	CN(C)c1nc(C(F)(F)F)nc2c1ncn2Cc1ccc(Cl)cc1Cl	30	–	20	17	–	28	Inhibition [31]: 35%; Inhibition [32]: 10%; Inhibition [24]: 32 µM; Inhibition [37]: 40%; Inhibition [25]: 15%; Inhibition [39]: 25%
3	–	–	–	–	6	2.3	0.5	–	4.3	8.8	–	2.3	–	CN(C)c1nc(C(F)(F)F)nc2c1ncn2Cc1ccc(S(C)(=O)=O)cc1	–	40	–	–	32	–	IC50 [29]: 4.7 µM; IC50 [30]: 3.7 µM; IC50 [4]: 4.2 µM; IC50 [9]: 9 µM; Inhibition [31]: 16%; Inhibition [32]: 47%; Inhibition [33]: 36%; Inhibition [34]: 29%; Inhibition [35]: 36%; IC50 [36]: 9 µM
7.2	–	–	7	4.2	5.2	0.91	0.11	2.2	6	6	> 8	1.2	> 8	CN(C)c1nc(C(F)(F)F)nc2c1ncn2Cc1ccc(C(F)(F)F)cc1	–	–	22	44	40	–	IC50 [40]: 6.6 µM; IC50 [41]: 5.2 µM; Inhibition [44]: 23 µM; IC50 [36]: 8.2 µM
4.7	11	–	–	–	4	1.2	0.29	4.6	–	6.1	–	1.9	–	CN(C)c1ccc(Cn2cnc3c(N(C)C)nc(C(F)(F)F)nc32)cc1	27	39	45	–	35	41	IC50 [40]: 8.9 µM; Inhibition [31]: 46%; Inhibition [32]: 30%; Inhibition [37]: 23%; Inhibition [33]: 37%
4.2	5.7	2.2	1.2	1	2.6	0.1	0.03	0.35	1.2	–	–	–	–	Cc1ccc(Cn2cnc3c(N(C)C)nc(C(F)(F)F)nc32)cc1	40	18	–	–	–	–	IC50 [4]: 2.6 µM; IC50 [8]: 1.8 µM; IC50 [9]: 6.7 µM; Inhibition [12]: 43 µM; Inhibition [13]: 41 µM; Inhibition [14]: 41 µM; Inhibition [19]: 12%
2.7	15	–	7.1	3.2	2.3	0.57	0.03	0.3	–	–	–	0.8	–	CN(C)c1nc(C(F)(F)F)nc2c1ncn2Cc1cccc(F)c1	–	34	30	35	28	43	IC50 [8]: 8 µM; Inhibition [37]: 28%; Inhibition [39]: 34%; Inhibition [33]: 45%; IC50 [36]: 10 µM
